Source: US6187296A, “Lysine decarboxylase inhibitors for the prevention and treatment of periodontal disease” (priority 2000, dated 2001)

Columns and labels:
lysine decarboxylase [1] = target: T1, lysine decarboxylase (Selenomonas ruminantium, UniProt O50657); conditions: cited from earlier work
T1 construct: host or cells: Selenomonas ruminantium

lysine decarboxylase [2] = conditions: Mycoplasma dispar; cited from earlier work
lysine decarboxylase [3] = target: T2, lysine decarboxylase (Escherichia coli, UniProt P0A9H3); conditions: cited from earlier work
T2 construct: host or cells: Escherichia coli

lysine decarboxylase [4] = target: lysine decarboxylase (Eikenella corrodens, UniProt Q9Z4R7); assay: Cadaverine production by E. corrodens extract as a function of initial lysine concentration; assay type: biochemical; conditions: 0.42 mM EACA
Protocol: FIGS. 4A and 4B are graphs showing cadaverine production as a function of initial lysine concentration in the presence and absence of […] ε-amino-n-caproic acid (EACA). […] Initial rate of cadaverine produced (from 0.3 μg E. corrodens extract protein/ml) graphed against the initial lysine concentration. A. Cadaverine produced after 20 min: Enzyme only: .circle-solid.-.circle-solid.; with 0.42 ImM EACA .smallcircle. . . . .smallcircle.. B. Enlarged inset, cadaverine produced after 16 h (limited substrate): Enzyme only .circle-solid.-.circle-solid.; with 0.42 mM EACA .smallcircle. . . . .smallcircle..
The results of FIG. 1 were obtained when 0.1 ml of E. corrodens extract (10 μg protein/ml), or plaque extract (100 μg protein/ml) was added to 0.5×10^5 HL60 cells or 2×10^5 HeLa cells in 0.5 ml growth medium in 48-well plates (Costar, Cambridge, Mass.). The cells were incubated for 96 h at 37° C. in 5% CO2 in air, examined visually and counted on a Coulter Counter (Coulter Electronics Hialeah, Fla.). […] The samples were incubated at 43° C. for 5.0 min, vortexed with 2.0 ml toluene for 20 sec, centrifuged at 2,000 rpm for 5 min and the absorbance of the toluene layer read at 340 nm. From a standard curve, the cadaverine produced was measured and subtracted from the amount of free lysine initially in the medium plus extract after 16 h or 40 h. […]

HL60 cells = assay type: cell-based; conditions: FIG. 3; control 0.22 mM lysine; 0.72 mM lysine and/or 0.42 mM EACA
Protocol: Graphs show the percent growth inhibition after 96 h (2A) and the percent lysine remaining (2B) after 40 h incubation (obtained as described in legend to FIG. 1).

lysine decarboxylase [5] = target: T1, lysine decarboxylase; assay: Lysine decarboxylase activity in Selenomonas ruminantium; assay type: biochemical; conditions: half of the DL-form inhibiting values, read-out: Equivalent L inhibitory values
lysine decarboxylase [6] = assay: Lysine decarboxylase activity in Mycoplasma dispar; assay type: biochemical; conditions: half of the DL-form inhibiting values

T1 sequence (O50657 whole entry): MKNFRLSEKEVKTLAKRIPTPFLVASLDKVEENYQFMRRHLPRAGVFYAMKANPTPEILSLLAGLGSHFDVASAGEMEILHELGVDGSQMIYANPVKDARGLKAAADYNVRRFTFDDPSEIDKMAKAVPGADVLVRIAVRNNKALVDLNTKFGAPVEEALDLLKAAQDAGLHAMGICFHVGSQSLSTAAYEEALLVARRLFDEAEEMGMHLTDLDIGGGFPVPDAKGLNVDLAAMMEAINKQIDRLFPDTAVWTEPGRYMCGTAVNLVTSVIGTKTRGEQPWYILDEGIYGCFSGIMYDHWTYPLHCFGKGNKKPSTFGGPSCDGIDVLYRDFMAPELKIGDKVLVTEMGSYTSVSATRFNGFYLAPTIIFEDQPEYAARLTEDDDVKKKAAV
lysine decarboxylase (Eikenella corrodens, UniProt Q9Z4R7), sequence (Q9Z4R7 entry or part of it): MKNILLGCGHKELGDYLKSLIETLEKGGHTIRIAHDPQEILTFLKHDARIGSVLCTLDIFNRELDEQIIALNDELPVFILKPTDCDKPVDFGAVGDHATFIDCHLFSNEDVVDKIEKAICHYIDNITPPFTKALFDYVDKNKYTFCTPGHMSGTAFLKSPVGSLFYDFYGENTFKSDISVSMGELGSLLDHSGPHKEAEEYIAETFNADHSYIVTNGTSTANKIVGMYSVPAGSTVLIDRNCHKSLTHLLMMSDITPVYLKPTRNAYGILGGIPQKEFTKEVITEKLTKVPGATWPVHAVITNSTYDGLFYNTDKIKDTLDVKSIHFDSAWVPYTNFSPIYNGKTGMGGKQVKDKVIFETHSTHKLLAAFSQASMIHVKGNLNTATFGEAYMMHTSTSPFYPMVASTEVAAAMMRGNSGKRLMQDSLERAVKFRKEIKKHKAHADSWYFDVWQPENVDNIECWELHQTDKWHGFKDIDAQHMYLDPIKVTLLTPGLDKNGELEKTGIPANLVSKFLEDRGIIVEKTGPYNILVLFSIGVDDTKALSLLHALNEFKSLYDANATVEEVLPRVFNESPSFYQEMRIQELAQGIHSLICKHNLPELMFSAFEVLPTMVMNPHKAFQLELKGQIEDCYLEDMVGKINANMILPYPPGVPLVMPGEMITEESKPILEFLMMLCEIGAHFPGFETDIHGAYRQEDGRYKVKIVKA
T2 sequence (P0A9H3 whole entry): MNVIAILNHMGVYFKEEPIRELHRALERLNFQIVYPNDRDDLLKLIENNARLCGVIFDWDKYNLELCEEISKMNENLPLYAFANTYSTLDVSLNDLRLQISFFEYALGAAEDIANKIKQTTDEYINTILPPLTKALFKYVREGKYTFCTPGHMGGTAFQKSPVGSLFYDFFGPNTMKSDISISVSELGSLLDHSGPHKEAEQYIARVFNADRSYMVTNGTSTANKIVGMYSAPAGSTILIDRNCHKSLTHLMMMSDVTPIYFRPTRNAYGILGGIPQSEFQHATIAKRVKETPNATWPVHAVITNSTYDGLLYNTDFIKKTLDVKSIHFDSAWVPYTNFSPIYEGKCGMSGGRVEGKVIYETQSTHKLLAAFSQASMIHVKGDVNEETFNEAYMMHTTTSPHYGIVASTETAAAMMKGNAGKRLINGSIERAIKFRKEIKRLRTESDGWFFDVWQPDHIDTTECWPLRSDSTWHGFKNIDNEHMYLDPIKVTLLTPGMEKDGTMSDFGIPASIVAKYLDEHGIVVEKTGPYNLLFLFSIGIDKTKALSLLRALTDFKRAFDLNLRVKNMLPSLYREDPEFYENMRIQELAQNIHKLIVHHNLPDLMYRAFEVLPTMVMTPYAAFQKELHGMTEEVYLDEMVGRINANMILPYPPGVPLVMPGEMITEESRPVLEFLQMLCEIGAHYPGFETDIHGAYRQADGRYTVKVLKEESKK

NCCCC(N)(C(=O)O)C(F)F (racemic) [DFMO]
Effect on lysine decarboxylase activity (lysine decarboxylase [1]): no effect | Effect on lysine decarboxylase activity (lysine decarboxylase [2]): no effect

N=C(N)NCCCC(N)(C(=O)O)C(F)F (racemic) [DFMR]
Effect on lysine decarboxylase activity (lysine decarboxylase [1]): no effect | Effect on lysine decarboxylase activity (lysine decarboxylase [2]): no effect

NCCCCCC(=O)O [EACA, ε-amino-n-caproic acid]
Effect on lysine decarboxylase from E. coli (lysine decarboxylase [3]): inhibits | Effect on the E. corrodens enzyme at high lysine concentrations (lysine decarboxylase [4]; high lysine concentrations): inhibits the enzyme | Effect on the E. corrodens enzyme at low lysine concentrations (lysine decarboxylase [4]; lysine 0.22-0.72 mM as in growth media): activates the enzyme | Effect on growth inhibiting activity of E. corrodens extract (HL60 cells): increased the growth inhibition

NCCCC[C@](N)(C(=O)O)C(F)F [L-DFML]
IC100 (lysine decarboxylase [5]): 50 to 500 µM | Equivalent L inhibitory values (lysine decarboxylase [6]): 0.05 to 0.50 mM

NCCCC[C@H](N)C(=O)O [lysine]
Effect on growth inhibiting activity of E. corrodens extract (HL60 cells): decreased the growth inhibiting activity
